From ChEMBL document CHEMBL1201862, “PubChem BioAssay data set” (2004)
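Results reflect a 48-hour exposure of cells in 96-well plates to compound at five concentrations. The concentration for 50% growth inhibition is given as GI50.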 Active and inactive are the calls of the source. No stated cut-off is given here; in the data, active = GI50 up to about 1.1 µM and inactive = higher.

Tests used:
Assay in all cases: NCI tumour cell line growth inhibition, 48 h
MOLT-4 = test system: MOLT-4
CCRF-CEM = test system: CCRF-CEM
CAKI-1 = test system: CAKI-1
K562 = test system: K562
HT-29 = test system: HT-29
BT-549 = test system: BT-549
NCI-H226 = test system: NCI-H226
HCT-116 = test system: HCT-116
COLO 205 = test system: COLO 205
SR = test system: SR
UO-31 = test system: UO-31
LOX IMVI = test system: LOX IMVI
SK-MEL-28 = test system: SK-MEL-28
A498 = test system: A498
786-0 = test system: 786-0
NCI/ADR-RES = test system: NCI/ADR-RES
IGROV-1 = test system: IGROV-1
SK-OV-3 = test system: SK-OV-3
SF-268 = test system: SF-268

Row | SMILES | GI50 (MOLT-4) | GI50 (CCRF-CEM) | GI50 (CAKI-1) | GI50 (K562) | GI50 (HT-29) | GI50 (BT-549) | GI50 (NCI-H226) | GI50 (HCT-116) | GI50 (COLO 205) | GI50 (SR) | GI50 (UO-31) | GI50 (LOX IMVI) | GI50 (SK-MEL-28) | GI50 (A498) | GI50 (786-0) | GI50 (NCI/ADR-RES) | GI50 (IGROV-1) | GI50 (SK-OV-3) | GI50 (SF-268)
1 | COc1cc(/C=C/c2nc(N)nnc2C)cc(OC)c1OC | 38.8 µM (inactive) | 6 µM (inactive) | 6.56 µM (inactive) | 15.5 µM (inactive) | 10.6 µM (inactive) | 20.5 µM (inactive) | 10.1 µM (inactive) | 9.89 µM (inactive) | 10.3 µM (inactive) | 7.52 µM (inactive) | 4.71 µM (inactive) | 7.31 µM (inactive) | 30.1 µM (inactive) | 18 µM (inactive) | 21.5 µM (inactive) | 11.2 µM (inactive) | 15.6 µM (inactive) | 31.5 µM (inactive) | 21.5 µM (inactive)
2 | NCC1OC(n2cnc3c(=O)[nH]c(N)nc32)C(O)C1O (centres undefined) | > 100 µM (inactive) | > 82.8 µM (inactive) | > 100 µM (inactive) | 1 µM (active) | > 100 µM (inactive) | > 100 µM (inactive) | > 100 µM (inactive) | > 100 µM (inactive) | > 100 µM (inactive) | < 0.01 µM (active) | > 100 µM (inactive) | 69.8 µM (inactive) | > 100 µM (inactive) | > 100 µM (inactive) | > 100 µM (inactive) | > 100 µM (inactive) | > 100 µM (inactive) | > 100 µM (inactive) | > 100 µM (inactive)
3 | CCOC(=O)c1ccc(-c2cccs2)n1C | 39.4 µM (inactive) | 71.8 µM (inactive) | > 100 µM (inactive) | 60.5 µM (inactive) | 47.2 µM (inactive) | > 83 µM (inactive) | > 100 µM (inactive) | > 95.1 µM (inactive) | > 100 µM (inactive) | > 64.9 µM (inactive) | 43.7 µM (inactive) | > 77.8 µM (inactive) | > 100 µM (inactive) | > 100 µM (inactive) | > 100 µM (inactive) | > 87.5 µM (inactive) | > 80.7 µM (inactive) | > 87.3 µM (inactive) | > 100 µM (inactive)
4 | O=c1c2nn3c(=O)n(-c4ccccc4)c(=O)c3nn2c(=O)n1-c1ccccc1 | > 100 µM (inactive) | 56 µM (inactive) | > 100 µM (inactive) | > 100 µM (inactive) | > 100 µM (inactive) | > 100 µM (inactive) | > 100 µM (inactive) | > 100 µM (inactive) | > 100 µM (inactive) | > 100 µM (inactive) | > 100 µM (inactive) | > 100 µM (inactive) | > 100 µM (inactive) | 50.4 µM (inactive) | > 100 µM (inactive) | > 100 µM (inactive) | > 100 µM (inactive) | > 100 µM (inactive) | > 100 µM (inactive)
5 | Cc1ccc2c(O)cc(-c3ccsc3)nc2n1 | 3.56 µM (inactive) | 6.18 µM (inactive) | 6.95 µM (inactive) | 2.9 µM (inactive) | 5.62 µM (inactive) | 4.46 µM (inactive) | 4.13 µM (inactive) | 3.62 µM (inactive) | 3.21 µM (inactive) | 0.361 µM (active) | 2.32 µM (inactive) | 3.62 µM (inactive) | 7.23 µM (inactive) | 4.07 µM (inactive) | 4.58 µM (inactive) | 2.29 µM (inactive) | 4.74 µM (inactive) | 10 µM (inactive) | 14.4 µM (inactive)
6 | O=C(N/N=C\c1ccc([N+](=O)[O-])cc1)Nc1ccc2ccccc2c1 | > 100 µM (inactive) | 35.3 µM (inactive) | 37.5 µM (inactive) | 73.6 µM (inactive) | 27.1 µM (inactive) | 45.4 µM (inactive) | 32.6 µM (inactive) | 24.3 µM (inactive) | 24.7 µM (inactive) | 20.6 µM (inactive) | 82.4 µM (inactive) | 69.7 µM (inactive) | 46.5 µM (inactive) | 24.2 µM (inactive) | 17.2 µM (inactive) | 50.6 µM (inactive) | 26.1 µM (inactive) | 31.4 µM (inactive) | 35.1 µM (inactive)
